Laboratory results: patent US7214676B2, “Spirotricyclic derivatives and their use as phosphodiesterase-7 inhibitors” (Warner-Lambert Company LLC, priority 2001, dated 2007)

Target: T1, PDE7A1 (Homo sapiens, UniProt Q13946)
T1 construct: made in house; host or cells: Sf21 insect cells, baculovirus expression system
Test: In vitro inhibition of phosphodiesterase 7
Assay type: biochemical
Conditions: substrate cAMP 50 nM, reaction stopped after 10 minutes; read-out: IC50 PDE7
Experimental: The capacity of the compounds of the invention to inhibit cyclic nucleotide phosphodiesterases was evaluated by measuring their IC50 (concentration necessary to inhibit the enzymatic activity by 50%).
PDE3A3, PDE4D3, PDE7A1 were cloned and expressed in insect cells Sf21 using the baculovirus expression system and we uses directly the cell culture supernatant as enzyme source. The source of PDE1 and of PDE5 were human cell lines (respectively TPH1 human monocytes and MCF7 human breast adenocarcinoma).
They were obtained partially purified on an anion exchange column (Mono Q) according to a method adapted from Lavan B. E., Lakey T., Houslay M. D. Biochemical pharmacology, 1989, 38 (22), 4123–4136.
Measurement of the enzymatic activity for the various types of PDE was then made according to a method adapted from W. J. Thompson et al. 1979, Advances in Cyclic Nucleotide Research, Vol. 10: 69–92, ed. G. Brooker et al. Raven Press, NY.
The substrate used was cGMP for PDE1 and PDE5 and cAMP for PDE 3, PDE 4 and PDE 7. The substrate concentration was 0.2 μM for PDE 1, PDE 3 and PDE 5, 0,25 μM for PDE 4 and 50 nM for PDE 7.
The enzymatic reaction was stopped after 1 hour for PDE 1, PDE 3 and PDE 5 and 10 minutes for PDE 4 and PDE 7.

T1 sequence (Q13946 whole entry, species assumed): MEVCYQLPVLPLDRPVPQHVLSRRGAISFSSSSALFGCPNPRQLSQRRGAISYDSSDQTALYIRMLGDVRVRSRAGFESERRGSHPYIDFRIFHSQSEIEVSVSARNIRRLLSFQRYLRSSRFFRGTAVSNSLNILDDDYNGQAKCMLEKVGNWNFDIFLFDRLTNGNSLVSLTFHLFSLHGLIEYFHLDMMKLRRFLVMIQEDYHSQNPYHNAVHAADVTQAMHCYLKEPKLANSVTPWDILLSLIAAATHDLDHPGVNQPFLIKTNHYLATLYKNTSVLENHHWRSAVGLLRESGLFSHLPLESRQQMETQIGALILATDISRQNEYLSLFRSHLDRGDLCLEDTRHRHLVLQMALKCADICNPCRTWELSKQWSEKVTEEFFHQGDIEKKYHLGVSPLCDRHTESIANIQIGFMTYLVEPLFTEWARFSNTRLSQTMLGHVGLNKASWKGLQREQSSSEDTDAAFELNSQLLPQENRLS

## O=C1Nc2c(Cl)cc(-c3ccc4[nH]ccc4c3)cc2C2(CCCCC2)N1 [Example 34, 8′-Chloro-6′-(1H-indol-5-yl)spiro[cyclohexane-1-4′-(3′,4′-dihydro)quinazolin]-2′(1H)-one]
  IC50: 12 nM

## O=C1Nc2c(Cl)cc(-c3ccc(C(=O)N4CCN(CC(=O)N5CCOCC5)CC4)cc3)cc2C2(CCCCC2)N1 [Example 53, 8′-Chloro-6′-[4-(4-(2-morpholin-4-yl-2-oxo-ethyl)-piperazine-1-carbonyl)-phenyl]spiro[-cyclohexane-1-4′-(3′,4′-dihydro)quinazolin]-2′(1′H)-one]
  IC50: 13 nM

## O=C1Nc2c(Cl)cc(-c3ccc(C(=O)N4CCN(c5ncccn5)CC4)cc3)cc2C2(CCCCC2)N1 [Example 51, 8′-Chloro-6′-[4-(4-pyrimidin-2-yl-piperazine-1-carbonyl)phenyl]spiro[-cyclohexane-1-4′-(3′,4′-dihydro)quinazolin]-2′(1′H)-one]
  IC50: 8 nM

## CN1CCN(C(=O)c2ccc(-c3cc(Cl)c4c(c3)C3(CCCCC3)NC(=O)N4)cc2)CC1 [Example 38, 8′-Chloro-6′-[4-(4-methyl-piperazine-1-carbonyl)phenyl]spiro[cyclohexane-1-4′-(3′,4′-dihydro)quinazolin]-2′(1′H)-one]
  IC50: 18 nM

## O=C1Nc2c(Cl)cc(-c3ccccc3)cc2C2(CCCCC2)N1 [Example 26, 8′-Chloro-6′-phenylspiro[cyclohexane-1-4′-(3′,4′-dihydro)quinazolin]-2′(1′H)-one]
  IC50: 16 nM

## CN(C)CCCNC(=O)c1cccc(-c2cc(Cl)c3c(c2)C2(CCCCC2)NC(=O)N3)c1 [Example 41, 8′-Chloro-6′-[3-(3-N-dimethylamino-propylcarboxamide)phenyl]spiro[-cyclohexane-1-4′-(3′,4′-dihydro)quinazolin]-2′(1′H)-one]
  IC50: 20 nM

## O=C1Nc2c(Cl)ccc(Cl)c2C2(CCCCC2)N1 [Example 15, 5′,8′-Dichlorospiro[cyclohexane-1-4′-3′,4′-dihydro)quinazolin]-2′(1′H)-one]
  IC50: 14 nM

## O=C1Nc2c(Cl)cc(-c3ccc(C(=O)N4CCN(CCOCCO)CC4)cc3)cc2C2(CCCCC2)N1 [Example 54]
  IC50: 13 nM

## O=C1Nc2c(Cl)cc(-c3ccc(C(=O)N4CCN(CCN5CCOCC5)CC4)cc3)cc2C2(CCCCC2)N1 [Example 52, 8′-Chloro-6′-[4-(4-(2-morpholin-4-yl-ethyl)-piperazine-1-carbonyl)-phenyl]spiro[-cyclohexane-1-4′-(3′,4′-dihydro)quinazolin]-2′(1′H)-one]
  IC50: 15 nM
